For data set [1], the system named is Homo sapiens. Briefly: AUC (0 to last) in healthy human at 500 mg, po administered as single dose. The class given is ADME, organism-based, Plasma. Also noted: dose 500 mg, time 0 - last, route oral. The following applies: in vivo.
Data set [2] concerns Homo sapiens. Briefly: AUC (0 to infinity) in healthy human at 500 mg, po administered as single dose. Conditions: in vivo. The class given is ADME, organism-based, Plasma. Details: dose 500 mg, route oral, time infinity.

As for `CC(=O)OCC(CCn1cnc2cnc(N)nc21)COC(C)=O` [FAMCICLOVIR], the figures for the AUC in data set [1] and in data set [2] were 8.54 ug/hr.ml and 8.94 ug/hr.ml, respectively.

The values are drawn from ChEMBL document CHEMBL1649203, “Pharmacokinetics and safety of famciclovir in children with herpes simplex or varicella-zoster virus infection” (Antimicrob Agents Chemother, 2009).
